These molecules were tested against FPRL-1 (Homo sapiens (Human), UniProt P25090) (assay: FPRL-1 Ga16-CHO EC50 (efficacy)). Details: Table 1; value in brackets.
Assay type: cell-based

FPRL-1, sequence (P25090 whole entry): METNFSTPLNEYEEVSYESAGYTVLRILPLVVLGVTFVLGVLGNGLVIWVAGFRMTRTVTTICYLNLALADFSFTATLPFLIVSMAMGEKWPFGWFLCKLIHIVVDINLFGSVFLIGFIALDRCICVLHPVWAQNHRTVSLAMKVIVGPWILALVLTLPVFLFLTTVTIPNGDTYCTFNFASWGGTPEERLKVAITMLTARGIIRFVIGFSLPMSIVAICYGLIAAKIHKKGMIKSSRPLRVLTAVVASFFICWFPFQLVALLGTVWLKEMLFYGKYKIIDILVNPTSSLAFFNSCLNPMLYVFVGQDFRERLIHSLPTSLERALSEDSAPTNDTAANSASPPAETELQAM

FPRL-1 Ga16-CHO (efficacy) | SMILES
0.97 | O=C(Nc1ccc(C(F)(F)F)cc1)N[C@@H](Cc1ccccc1)C(=O)O [(2S)-3-phenyl-2-[({[4-(trifluoromethyl)phenyl]amino}carbonyl)amino]propanoic acid]
0.57 | O=C(Nc1ccc(Cl)c(Cl)c1)N[C@@H](Cc1ccccc1)C(=O)O [(2S)-2-({[(3,4-dichlorophenyl)amino]carbonyl}amino)-3-phenylpropanoic acid]
0.94 | O=C(Nc1ccc(Br)cc1)N[C@H](C(=O)O)c1ccccc1 [(2S)-({[(4-bromophenyl)amino]carbonyl}amino) (phenyl)acetic acid]
0.72 | COc1ccc(NC(=O)NC(Cc2ccccc2)C(=O)O)cc1OC (stereo not shown) [2-({[(3,4-dimethoxyphenyl)amino]carbonyl}amino)-3-phenylpropanoic acid]
0.91 | CC(C)[C@H](NC(=O)Nc1ccc(Br)cc1F)C(=O)O [(2S)-2-({[(4-bromo-2-fluorophenyl)amino]carbonyl}amino)-3-methylbutanoic acid]

Same assay, conditions: Table 2; value in brackets

FPRL-1 Ga16-CHO (efficacy) | SMILES
0.98 | O=C(Nc1ccc(Cl)cc1)NN1C(=O)NC2(CCCCC2)C1=O [1-(4-chlorophenyl)-3-(2,4-dioxo-1,3-diazaspiro[4,5]decan-3-yl) urea]
0.96 | CCC1(C)NC(=O)N(NC(=O)Nc2ccc(Cl)cc2)C1=O (stereo not shown) [1-(4-chlorophenyl)-3-(4-ethyl-4-methyl-2,5-dioxoimidazolidin-1-yl)urea]
0.91 | Cc1ccc(NC(=O)NN2C(=O)NC3(CCC(C)CC3)C2=O)cc1 (stereo not shown) [1-(8-methyl-2,4-dioxo-1,3-diazaspiro[4,5]decan-3-yl)-3-(p-tolyl)urea]

Same assay, conditions: Table 3; value in brackets

FPRL-1 Gal16-CHO (efficacy) | SMILES
0.89 | O=C(CN1C(=O)NC2(CCCCC2)C1=O)Nc1ccc(Br)cc1 [N-(4-bromophenyl)-2-(2,4-dioxo-1,3-diazaspiro[4.5]dec-3-yl)acetamide]
0.98 | CCC1(CC)NC(=O)N(CC(=O)Nc2ccc(Br)cc2)C1=O [N-(4-bromophenyl)-2-(4,4-diethyl-2,5-dioxoimidazolidin-1-yl)acetamide]
0.90 | O=C(CN1C(=O)C2C3C=CC(C3)C2C1=O)Nc1ccc(Br)cc1 (stereo not shown) [N-(4-bromophenyl)-1,3,3a,4,7,7a-hexahydro-1,3-dioxo-4,7-methano-2H-isoindole-2-acetamide]

What follows are molecules tested against human FPR2 receptor (Homo sapiens (Human), UniProt P25090) (assay: FLIPR Ca+2 response in HEK-Gα16 cells stably expressing the human FPR2 receptor). Details: Table 4.
human FPR2 receptor, sequence (P25090 whole entry): as above
Assay type: cell-based
Parameters: FPR2 (% eff): unit not given here
Outline: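 HEK-Gα16 cells stably expressing human FPR2, loaded with 2 μM Fluo-4 in HBSS/20 mM HEPES for 40 min at 37° C., then washed. Ligands added in HBSS/Hepes and Ca+2 responses recorded on FLIPR in relative fluorescence units.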

EC50 | SMILES
< 1 nM | O=C(Nc1ccc(Br)cc1)[C@@H]1C2CCC([C@@H]1C(=O)O)C21CC1 (single isomer, unassigned) [Compound 44]
12.4 nM | CC(=O)CNC(=O)[C@H](Cc1ccccc1)NC(=O)Nc1ccc(Br)cc1F [Compound 68, (2S)-2-{[(4-bromo-2-fluorophenyl)carbamoyl]amino}-N-(2-oxopropyl)-3-phenylpropanamide]

Same assay, conditions: Table 4; value in brackets, given mostly as fraction

SMILES | FPR2 (% eff)
CC(C)NC(=O)C1C(C(=O)Nc2ccc(Br)cc2)C2CCC1C21CC1 (stereo not shown) [Compound 48, N-(4-bromophenyl)-N′-(propan-2-yl)spiro[bicyclo[2.2.1]heptane-7,1′-cyclopropane]-2,3-dicarboxamide] | 1.0
CCOP(=O)(O)CNC(=O)[C@H](CC(C)C)NC(=O)Nc1ccc(C(F)(F)F)cc1 [Compound 135, ethyl hydrogen ({[(2S)-4-methyl-2-({[4-(trifluoromethyl)phenyl]carbamoyl}amino)pentanoyl]amino}methyl)phosphonate] | 0.91
NC(=O)C1C(C(=O)Nc2ccc(I)cc2)C2CCC1C21CC1 (stereo not shown) [Compound 38, N-(4-iodophenyl)spiro[bicyclo[2.2.1]heptane-7,1′-cyclopropane]-2,3-dicarboxamide] | 0.95
CCOP(=O)(CCNC(=O)CC1(C(C)C)NC(=O)N(NC(=O)Nc2ccc(Br)cc2)C1=O)OCC (stereo not shown) [Compound 152, diethyl [2-({[1-{[(4-bromophenyl)carbamoyl]amino}-2,5-dioxo-4-(propan-2-yl)imidazolidin-4-yl]acetyl}amino)ethyl] phosphonate] | 1.0
O=C(Nc1ccc(Br)cc1)[C@@H]1C2CCC([C@@H]1C(=O)O)C21CC1 (single isomer, unassigned) [Compound 44] | 0.98
CS(=O)(=O)c1ccc(NC(=O)Nc2ccc3c(c2)C(=O)N(CCc2c[nH]cn2)C(c2ccc(C#N)cc2)C3)cc1 (stereo not shown) [Compound 19, 1-{3-(4-cyanophenyl)-2-[2-(1H-imidazol-4-yl)ethyl]-1-oxo-1,2,3,4-tetrahydroisoquinolin-7-yl}-3-[4-(methylsulfonyl)phenyl]urea] | 1.00
NC(=O)C1C(C(=O)Nc2ccc(I)cc2)C2C=CC1C21CC1 (stereo not shown) [Compound 39, N-(4-iodophenyl)spiro[bicyclo[2.2.1]heptane-7,1′-cyclopropane]-5-ene-2,3-dicarboxamide] | 0.90
O=C(O)C1C(C(=O)Nc2ccc(I)cc2)C2CCC1C21CC1 (stereo not shown) [Compound 15, 3-[(4-iodophenyl)carbamoyl]spiro [bicyclo[2.2.1]heptane-7,1′-cyclopropane]-2-carboxylic acid] | 0.87

Second part, the molecule after the results:

FPR2 (% eff) | SMILES
0.92 | CC(C)C1(CC(=O)NC(CO)CO)NC(=O)N(NC(=O)Nc2ccc(Br)cc2)C1=O (stereo not shown) [Compound 142, 2-[1-{[(4-bromophenyl)carbamoyl]amino}-2,5-dioxo-4-(propan-2-yl)imidazolidin-4-yl]-N-(1,3-dihydroxypropan-2-yl)acetamide]
1.0 | CC(C)C1(CC(=O)NCCC(=O)O)NC(=O)N(NC(=O)Nc2ccc(Br)cc2F)C1=O (stereo not shown) [Compound 145, 3-({[1-{[(4-bromo-2-fluorophenyl)carbamoyl]amino}-2,5-dioxo-4-(propan-2-yl)imidazolidin-4-yl]acetyl}amino)propanoic acid]
1.0 | CC(C)C1(C(C)C)NC(=O)N(NC(=O)Nc2ccc(Br)cc2)C1=O [Compound 64, 1-(4-bromophenyl)-3-[2,5-dioxo-4,4-di(propan-2-yl)imidazolidin-1-yl]urea]
0.92 | CC(C)C[C@H](NC(=O)Nc1ccc(C(F)(F)F)cc1)C(=O)NC(C)(C)C(=O)O [Compound 139, 2-methyl-2-{[(2S)-4-methyl-2-({[4-(trifluoromethyl)phenyl]carbamoyl}amino)pentanoyl]amino}propanoic acid]
1.0 | CC1(CCc2ccc(O)cc2)NC(=O)N(NC(=O)Nc2ccc(Br)cc2)C1=O (stereo not shown) [Compound 86, 1-(4-bromophenyl)-3-{4-[2-(4-hydroxyphenyl)ethyl]-4-methyl-2,5-dioxoimidazolidin-1-yl}urea]
0.99 | CC(C)C[C@H](NC(=O)Nc1ccc(Br)cc1)C(=O)NCC(=O)N(C)C [Compound 120, (2S)-2-{[(4-bromophenyl)carbamoyl]amino}-N-[2-(dimethylamino)-2-oxoethyl]-4-methylpentanamide]
1.0 | CC(C)C[C@H](NC(=O)Nc1ccc(Br)cc1)C(=O)NCP(=O)(OC(C)C)OC(C)C [Compound 131, dipropan-2-yl({[(2S)-2-{[(4-bromophenyl)carbamoyl]amino}-4-methylpentanoyl]amino}methyl)phosphonate]
0.93 | CC(C)C[C@H](NC(=O)Nc1ccc(I)cc1)C(=O)O [Compound 121, (2S)-2-{[(4-iodophenyl)carbamoyl]amino}-4-methylpentanoic acid]
0.99 | CC(C)C[C@H](NC(=O)Nc1ccc(C(F)(F)F)cc1)C(=O)NCS(=O)(=O)O [Compound 237, {[(2S)-4-methyl-2-({[4-(trifluoromethyl)phenyl]carbamoyl}amino)pentanoyl]amino}methanesulfonic acid]
0.94 | CC(=O)CNC(=O)[C@H](Cc1ccccc1)NC(=O)Nc1ccc(Br)cc1F [Compound 68, (2S)-2-{[(4-bromo-2-fluorophenyl)carbamoyl]amino}-N-(2-oxopropyl)-3-phenylpropanamide]
0.97 | CCC1(C(C)C)NC(=O)N(NC(=O)Nc2ccc(Br)cc2F)C1=O (stereo not shown) [Compound 61, 1-(4-bromo-2-fluorophenyl)-3-[4-ethyl-2,5-dioxo-4-(propan-2-yl)imidazolidin-1-yl]urea]
0.99 | CC(=O)CNC(=O)[C@H](CC(C)C)NC(=O)Nc1ccc(Br)cc1F [Compound 85, (2S)-2-{[(4-bromo-2-fluorophenyl)carbamoyl]amino}-4-methyl-N-(2-oxopropyl)pentanamide]
0.97 | CC(C)C[C@H](NC(=O)Nc1ccc(Br)cc1)C(=O)N[C@H](C(=O)O)C(C)C [Compound 91, (2S)-2-{[(2S)-2-{[(4-bromophenyl)carbamoyl]amino}-4-methylpentanoyl]amino}-3-methylbutanoic acid]
0.81 | CC(C)C[C@H](NC(=O)Nc1ccc(Br)cc1)C(=O)NCc1nnn[nH]1 [Compound 104, (2S)-2-{[(4-bromophenyl)carbamoyl]amino}-4-methyl-N-(1H-tetrazol-5-ylmethyl)pentanamide]
0.95 | CC(C)C[C@H](NC(=O)Nc1ccc(Br)cc1F)C(=O)NCC(N)=O [Compound 84, (2S)-N-(2-amino-2-oxoethyl)-2-{[(4-bromo-2-fluorophenyl)carbamoyl]amino}-4-methylpentanamide]
0.99 | CC(C)C1(CC(=O)NCCC(=O)O)NC(=O)N(NC(=O)Nc2ccc(Br)cc2)C1=O (stereo not shown) [Compound 147, 3-({[1-{[(4-bromophenyl)carbamoyl]amino}-2,5-dioxo-4-(propan-2-yl)imidazolidin-4-yl]acetyl}amino)propanoic acid]
0.91 | CCC[C@H](NC(=O)Nc1ccc(Br)cc1F)C(=O)NCC(=O)O [Compound 74, {[(2S)-2-{[(4-bromo-2-fluorophenyl)carbamoyl]amino}pentanoyl]amino}acetic acid]
0.99 | CCOC(=O)C1CCC2(CC1)NC(=O)N(NC(=O)Nc1ccc(Br)cc1)C2=O (stereo not shown) [Compound 153, ethyl 3-{[(4-bromophenyl)carbamoyl]amino}-2,4-dioxo-1,3-diazaspiro[4.5]decane-8-carboxylate]
0.95 | CC(C)C[C@H](NC(=O)Nc1ccc(Br)cc1F)C(=O)N[C@@H](C)C(=O)O [Compound 87, (2S)-2-{[(2S)-2-{[(4-bromo-2-fluorophenyl)carbamoyl]amino}-4-methylpentanoyl]amino}propanoic acid]

— patent publication US10434112B2, “Use of agonists of formyl peptide receptor 2 for treating dermatological diseases” (Allergan, Inc., priority 2013, dated 2019)
